Experimental data: patent publication US20030044413A1, “Methods of limiting apoptosis of cells” (Regents of the University of Minnesota, priority 1998, published 2003)
“Also recorded” adds a separate entry of the source.

Tests used:
hepatocytes = assay: TUNEL assay in liver of rats fed bile acids; assay type: in vivo, rat; conditions: 10 days
Text: Animals and diets. Male 160-175 gram (g) Sprague-Dawley rats (Sprague-Dawley, Indianapolis, Ind.) were maintained on a 12-hour (h) light-dark cycle and fed standard laboratory chow ad libitum for 3 days. […] On day 10, the animals were sacrificed by exsanguination under ether anesthesia between 9 a.m. and 11 a.m. The livers were removed, rinsed in normal saline, and flash-frozen in liquid nitrogen. Liver tissue samples were embedded in OCT, and 5 μm-thick cryostat sections were cut and mounted on slides. […] All animals received human care in compliance with the Guide for the Care and use of Laboratory Animals, prepared by the National Academy of Sciences (NIH Publication No. 86-23, revised 1985). Terminal transferase-mediated dUTP-digoxigenin nick end labeling (TUNEL) assay. Digoxigenin-nucleotide residues were added to 3′-OH ends of double or single-stranded DNA by terminal deoxynucleotidyl transferase. Reactions were performed according to the manufacturer's recommendations (Oncor, Inc., Gaithersburg, Md.), and the specimens were then coversliped with Permount medium (Fischer Scientific, Inc., Itasca, Ill.) prior to analysis by phase-contrast microscopy using a Nikon microscope (Nikon, Inc., Melville, N.Y.). Photographs were taken using Kodak Ektar-1000 film (Eastman Kodak Co., Rochester, N.Y.).

[1] = system: isolated rat liver mitochondria; assay: FACS analysis of ΔΨm and ROS in isolated mitochondria
Protocol: Measurement of ΔΨm and ROS Production by FACS Analysis. ΔΨm and ROS production were measured by FACScan (Becton Dickinson, San Jose, Calif.) analysis. Freshly isolated rat mitochondria were resuspended in respiration buffer (50-100 μg/ml) and then incubated for 15 min at 37° C. with 50 nM 3,3′-dihexyloxacarbocyanine iodide [DiOC6(3)],2 μM dihydroethidium (HE), or 5 μM 2′,7′-dichlorofluorescin diacetate (H2DCFDA; Molecular Probes Inc.) (Cathcart et al., Anal. Biochem., 134, 111-116 (1983); Carter et al., J. Leukoycte Biol, 55, 253-258 (1994); Zamzami et al., J. Exp. Med., 181 1661-1672 (1995)). Mitochondria were then treated with DCA (100 μM) or PhAsO (80 μM) for 5 min and analyzed by cytofluorometry. For the coincubation studies, mitochondria were preincubated with UDCA (500 μM) or HDCA (500 μM) prior to the addition of either DCA or PhAsO.

HuH-7 cells = assay: TGF-β1-induced apoptosis, Hoechst staining, HuH-7 cells; assay type: cell-based, human
Protocol: (§1) Incubation of cells with ethanol, TGF-β1, anti-Fas antibody or okadaic acid. Freshly isolated rat hepatocytes were cultured for 3 h as described above and then incubated with William's E medium supplemented with either 0.5% ethanol, 50 μM UDCA, ethanol plus UDCA, or no addition (control) for 2 h and 4 h. HuH-7 cells were incubated with Dulbecco's medium supplemented with either 1 nM TGF-β1 (R & D Systems, Minneapolis, Minn.), 100 μM UDCA, TGF-β1+UDCA, or no addition (control) for 24 h, 48 h, and 72 h. Hep G2 cells were incubated with Dulbecco's medium supplemented with either 0.5 μg/ml of anti-Fas antibody CH-11 (Upstate Biotechnology, Inc., Lake Placid, N.Y.), 100 μM UDCA, CH-11+UDCA, or no addition for 48 h. Both HuH-7 cells and human osteogenic sarcoma Saos-2 cells were cultured in Dulbecco's medium supplemented with either 50 nM okadaic acid (Boehringer Mannheim Biochemicals, Inc, Indianapolis, Ind.), 100 μM UDCA, okadaic acid+UDCA, or no addition for 48 h. In all the combination groups, cells were pretreated with UDCA alone for 60 min prior to addition of ethanol, TGF-β1, anti-Fas antibody or okadaic acid.
HuH-7 cells were treated with 1 nM TGF-β1, 100 μM of either hyodeoxycholic acid, taurocholic acid, tauroursodeoxycholic acid (Sigma Chemical Co.) or glycoursodeoxycholic acid (Steraloids Inc., Wilton, N.H.), or a combination of TGF-β1 plus the individual bile acids for 72 h. HeLa and Cos-7 cells were incubated with 50 nM okadaic acid, 100 μM of either tauroursodeoxycholic acid or glycoursodeoxycholic acid, or a combination of okadaic acid plus the individual bile acids for 24 h. In the combination groups, cells were pretreated with the bile acid alone for 60 min prior to incuation with TGF-β1 or okadaic acid. In all studies, the medium was gently removed at the indicated times and scored for nonviable cells. The attached cells were fixed for morphologic evaluation of apoptosis.
Morphological evaluation of apoptosis. […] Fluorescence was visualized with a Zeiss standard fluorescence microscope (Carl Zeiss, Inc., Thornwood, N.Y.). Photographs were taken with Kodak Ektar-1000 film (Eastman Kodak Co.). Stained nuclei were scored by blind analysis and categorized according to the condensation and staining characteristics of chromatin. Normal nuclei were identified as noncondensed chromatin dispersed over the entire nucleus. Apoptotic nuclei were identified by condensed chromatin, contiguous to the nuclear membrane, as well as nuclear fragmentation of condensed chromatin. Three fields per dish of approximately 500 nuclei were counted; mean values are expressed as the percent of apoptotic nuclei.

Saos-2 cells = assay: Okadaic acid-induced apoptosis, Saos-2 cells; assay type: cell-based, human
Protocol: as §1
Morphological evaluation of apoptosis. Morphology was performed as described previously (Oberhammer et al., Proc. Natl. Acad. Sci. USA 89, 5408-5412 (1992)). Briefly, after fixation (with 4% formaldehyde in PBS, pH 7.4, for 10 min at room temperature), the cells were incubated with Hoechst dye 33258 (Sigma Chemical Co.) at 5 μg/ml in PBS for 5 min, washed with PBS and mounted with PBS:glycerol (3:1, v/v). Fluorescence was visualized with a Zeiss standard fluorescence microscope (Carl Zeiss, Inc., Thornwood, N.Y.). Photographs were taken with Kodak Ektar-1000 film (Eastman Kodak Co.). Stained nuclei were scored by blind analysis and categorized according to the condensation and staining characteristics of chromatin. Normal nuclei were identified as noncondensed chromatin dispersed over the entire nucleus. […] Three fields per dish of approximately 500 nuclei were counted; mean values are expressed as the percent of apoptotic nuclei.

[2] = rats fed chow with 0.4% bile acid
[3] = 100 μM DCA alone or 500 μM UDCA alone
[4] = 1 nM TGF-β1, 100 μM bile acid, 72 h

C[C@H](CCC(=O)O)[C@H]1CC[C@H]2[C@@H]3CC[C@@H]4C[C@H](O)CC[C@]4(C)[C@H]3C[C@H](O)[C@]12C [DCA, deoxycholic acid]
change in TUNEL-positive cells (hepatocytes; FIG. 1 legend, 0.4% in chow): significant increase | increase in TUNEL-positive liver cells from control values (hepatocytes; [2]): ~40 fold | liver cells with positive nuclear staining for fragmented DNA (TUNEL) (hepatocytes; [2]): 11% | other ROS (peroxides, H2DCFDA) ([1]; 100 μM DCA alone): 21.7±3.5% | superoxide anion production [1, 3]: 20.7±2.4% | percentage of low ΔΨm ([1]; 100 μM DCA alone, 5 min): 16.0±1.8%

C[C@H](CCC(=O)O)[C@H]1CC[C@H]2[C@@H]3[C@@H](O)C[C@@H]4C[C@H](O)CC[C@]4(C)[C@H]3CC[C@]12C [UDCA, ursodeoxycholic acid]
decrease of TGF-β1 apoptosis (HuH-7 cells; 1 nM TGF-β1, 100 μM bile acid, 24 h): approximately 49% | decrease of TGF-β1 apoptosis (HuH-7 cells; 1 nM TGF-β1, 100 μM bile acid, 48 h): ~44% | decrease of TGF-β1 apoptosis (HuH-7 cells; [4]): ~45% | Inhibition % Apoptosis (HuH-7 cells; inducer TGF-β1, HuH-7, inhibition by UDCA): 44.2 ± 11.2% | increase in TUNEL-positive liver cells from control values (hepatocytes; [2]): 2 fold | reduction of ROS production of peroxides ([1]; 80 μM PhAsO + 500 μM UDCA): 55% | reduction of ROS production of superoxide anions ([1]; 80 μM PhAsO + 500 μM UDCA): 100% | reduction of ΔΨm disruption ([1]; 80 μM PhAsO + 500 μM UDCA versus PhAsO alone): approximately 65% | other ROS (peroxides, H2DCFDA) ([1]; 100 μM DCA + 500 μM UDCA): 14.7±1.4% | percentage of low ΔΨm ([1]; 100 μM DCA + 500 μM UDCA): 10.3±0.7% | superoxide anion production ([1]; 100 μM DCA + 500 μM UDCA): 15.9±1.5% | superoxide anion production [1, 3]: 11.8±2.8% | reduction of the apoptotic response (Saos-2 cells; 50 nM okadaic acid + 100 μM UDCA, 48 h): > 80% | Inhibition % Apoptosis (Saos-2 cells; inducer OA, Saos-2, inhibition by UDCA): 81.8 ± 2.3%

C[C@H](CCC(=O)O)[C@H]1CC[C@H]2[C@@H]3C[C@H](O)[C@@H]4C[C@H](O)CC[C@]4(C)[C@H]3CC[C@]12C [hyodeoxycholic acid]
inhibition of TGF-β1-induced apoptosis (HuH-7 cells; [4]): did not; also recorded: neither hyodeoxycholic acid nor taurocholic acid showed inhibition | effect on DCA-mediated changes in ΔΨm and ROS production ([1]; 100 μM DCA, 500 μM bile acid pretreatment, listed as HDCA): did not prevent DCA-mediated changes; also recorded: does not significantly inhibit | ΔΨm and ROS with HDCA alone ([1]; 500 μM HDCA alone): no changes were observed

C=C1[C@@H](O)[C@@H]2O[C@]3(CC[C@H](/C=C/[C@@H](C)[C@@H]4CC(C)=C[C@@]5(O[C@H](C[C@@](C)(O)C(=O)O)CC[C@H]5O)O4)O3)CC[C@H]2O[C@@H]1[C@@H](O)C[C@H](C)[C@H]1O[C@@]2(CCCCO2)CC[C@H]1C [okadaic acid]
apoptosis induced (Saos-2 cells; 50 nM okadaic acid, 48 h): > 30%

TGF-β1: transforming growth factor β1, nonmembrane damaging inducer of apoptosis
induction of apoptosis (HuH-7 cells; 1 nM TGF-β1): significant apoptosis
